Reference: patent publication KR20230168537A, “유파틸린을 포함하는 대장암 예방 또는 치료용 약학적 조성물” (고려대학교 산학협력단, priority 2022, dated 2023)

Tests used:
Assay type in all cases: cell-based
[1] = test system: HCT116; experiment: MTT cell viability assay
[2] = test system: BAK; experiment: Western blot, apoptosis-related protein
[3] = test system: cytochrome c; experiment: Western blot, apoptosis-related protein
[4] = test system: HT29; experiment: MTT cell viability assay
[5] = test system: HCT116; experiment: Mitochondrial membrane potential (JC-1); settings: 48 h
[6] = test system: eIF2α; experiment: Western blot, ER stress-related protein; settings: HCT116
[7] = test system: HT29; experiment: TUNEL assay, DNA fragmentation; settings: HT29, 48 h
[8] = test system: HCT116; experiment: BrdU cell proliferation assay; settings: Homo sapiens, HCT-116; HCT116, 25 μM or more, 48 h; read-out: reduction of cell proliferation
[9] = test system: IRE1α; experiment: Western blot, ER stress-related protein
[10] = test system: HCT116; experiment: Transwell invasion assay; settings: Homo sapiens, HCT-116; HCT116, 50 μM, 16 h; read-out: reduction in number of cells passing through Transwell
[11] = test system: HT29; experiment: Spheroid culture (hanging drop); settings: HT29, 50 μM
[12] = test system: HCT116; experiment: Spheroid culture (hanging drop); settings: HCT116, dose-dependent
[13] = test system: P90RSK; experiment: Western blot, signalling protein phosphorylation; settings: HCT116 and HT29 cells
[14] = test system: HT29; experiment: BrdU cell proliferation assay; settings: Homo sapiens, HT-29; HT29, 50 μM or more, 48 h; read-out: reduction of cell proliferation
[15] = test system: HCT116; experiment: Annexin V/PI apoptosis assay; settings: Homo sapiens, HCT-116, 48 h, read-out: increase in apoptosis versus control
[16] = test system: colorectal cancer cells (대장암세포); experiment: Cell cycle analysis (PI, flow cytometry); settings: 100 μM, 48 h
[17] = test system: HT29; experiment: ROS production (DCFH-DA)
[18] = test system: ATG5; experiment: Western blot, autophagy-related protein; settings: HT29
[19] = test system: P70S6K; experiment: Western blot, signalling protein phosphorylation; settings: HCT116 and HT29 cells
[20] = test system: BCL-xL; experiment: Western blot, apoptosis-related protein; settings: colorectal cancer cells, 24 h
[21] = test system: HCT116; experiment: ROS production (DCFH-DA)
[22] = test system: HT29; experiment: Transwell invasion assay; settings: Homo sapiens, HT-29; HT29, 50 μM, 16 h; read-out: reduction in number of cells passing through Transwell
[23] = test system: ERK; experiment: Western blot, signalling protein phosphorylation; settings: HCT116 and HT29 cells
[24] = test system: HCT116; experiment: TUNEL assay, DNA fragmentation; settings: HCT116, 48 h
[25] = test system: AKT; experiment: Western blot, signalling protein phosphorylation; settings: HCT116 and HT29 cells
[26] = test system: HT29; experiment: Mitochondrial membrane potential (JC-1); settings: HT29, 100 μM, 48 h
[27] = test system: JNK; experiment: Western blot, signalling protein phosphorylation; settings: HCT116 and HT29 cells
[28] = test system: HT29; experiment: Cell migration assay; settings: HT29, 24 h
[29] = test system: P62; experiment: Western blot, autophagy-related protein; settings: HT29
[30] = test system: P38; experiment: Western blot, signalling protein phosphorylation; settings: HCT116 and HT29 cells
[31] = test system: HCT116; experiment: Cell migration assay; settings: HCT116, 24 h
[32] = test system: S6; experiment: Western blot, signalling protein phosphorylation; settings: HCT116 and HT29 cells
[33] = test system: LC3BⅡ; experiment: Western blot, autophagy-related protein
[34] = test system: GRP78; experiment: Western blot, ER stress-related protein; settings: HCT116
[35] = test system: HT29; experiment: Annexin V/PI apoptosis assay; settings: Homo sapiens, HT-29, 48 h, read-out: increase in apoptosis versus control

Q: With `O=c1[nH]cc(F)c(=O)[nH]1` [5-FU, 5-fluorouracil] as the molecule, how does the cell viability ([1]; HCT116, anticancer drug 5 μM alone) read?
A: Its cell viability is 74.2%.

Q: And the cell viability ([1]; HCT116, anticancer drug 10 μM alone)?
A: Its cell viability is 71.6%.

Q: And the cell viability ([1]; HCT116, anticancer drug 20 μM alone)?
A: The cell viability was 66.2%.

Q: What about the cell viability ([1]; HCT116, anticancer drug 40 μM alone) of the same molecule?
A: Its cell viability is 55.4%.

Q: And the BAK expression ([2]; 5-FU-resistant HCT116)?
A: Its BAK expression is “발현에는 영향을 미치지 못한”.

Q: What about the cytochrome c expression ([3]; 5-FU-resistant HCT116) of the same molecule?
A: Its cytochrome c expression is “발현에는 영향을 미치지 못한”.

Q: What about the cell viability ([4]; HT29, anticancer drug 5 μM alone) of the same molecule?
A: The cell viability was 69.0%.

Q: What about the cell viability ([4]; HT29, anticancer drug 10 μM alone) of the same molecule?
A: Its cell viability is 64.1%.

Q: What about the cell viability ([4]; HT29, anticancer drug 20 μM alone) of the same molecule?
A: Its cell viability is 56.5%.

Q: What about the cell viability ([4]; HT29, anticancer drug 40 μM alone) of the same molecule?
A: The cell viability was 50.9%.

Q: How did the cell viability ([1]; human, hct116 cells, 5 µM) turn out when `CCc1c2c(nc3ccc(OC(=O)N4CCC(N5CCCCC5)CC4)cc13)-c1cc3c(c(=O)n1C2)COC(=O)[C@]3(O)CC` [Irinotecan] was run?
A: The cell viability was 66.6%.

Q: What about the cell viability ([1]; human, hct116 cells, 10 µM) of the same molecule?
A: The cell viability was 52.0%.

Q: And the cell viability ([1]; human, hct116 cells, 20 µM)?
A: Its cell viability is 43.9%.

Q: What about the cell viability ([1]; human, hct116 cells, 40 µM) of the same molecule?
A: Its cell viability is 28.9%.

Q: And the cell viability ([4]; human, ht29 cells, 5 µM)?
A: Its cell viability is 81.4%.

Q: And the cell viability ([4]; human, ht29 cells, 10 µM)?
A: Its cell viability is 60.9%.

Q: And the cell viability ([4]; human, ht29 cells, 20 µM)?
A: Its cell viability is 50.1%.

Q: What about the cell viability ([4]; human, ht29 cells, 40 µM) of the same molecule?
A: Its cell viability is 30.1%.

Q: Which “decrease in mitochondrial membrane potential” value (“decrease” below) ([5]; HCT116, 50 μM) does the source give for `COc1ccc(-c2cc(=O)c3c(O)c(OC)c(O)cc3o2)cc1OC` [유파틸린, 5,7-Dihydroxy-3', 4', 6-trimethoxyflavone] here?
A: The value was 2.0 fold.

Q: And the “decrease” value ([5]; HCT116, 100 μM)?
A: Its value is 2.6 fold.

Q: And the “reduction of cell viability” value ([1]; HCT116, 25 μM or more)?
A: Its value is no less than 50%.

Q: And the “phosphorylated eIF2α expression” value [6]?
A: The value was “발현을 증가”.

Q: What about the “frequency of DNA fragmentation” value [7] of the same molecule?
A: The value was “DNA 단편화의 빈도를 증가”.

Q: And the inhibition at 25 µM [8]?
A: Its inhibition at 25 µM is no less than 50%.

Q: And the IRE1α expression ([9]; HCT116)?
A: The IRE1α expression was “발현을 증가”.

Q: What about the IRE1 expression ([9]; HT29, only IRE1 increased among the ER stress proteins) of the same molecule?
A: The IRE1 expression was “IRE1의 발현만 증가”.

Q: What about the inhibition at 50 µM [10] of the same molecule?
A: Its inhibition at 50 µM is 97.2%.

Q: What about the spheroid density [11] of the same molecule?
A: The spheroid density was “유의적으로 감소”.

Q: What about the spheroid density [12] of the same molecule?
A: Its spheroid density is “용량의존적으로 스페로이드의 전체 면적 및 밀도를 감소”.

Q: And the spheroid total area [12]?
A: The spheroid total area was “용량의존적으로 스페로이드의 전체 면적 및 밀도를 감소”.

Q: What about the P90RSK phosphorylation [13] of the same molecule?
A: Its P90RSK phosphorylation is “인산화를 유도”.

Q: What about the inhibition at 50 µM [14] of the same molecule?
A: Its inhibition at 50 µM is no less than 50%.

Q: What about the fold induction at 50 µM ([15]; HCT116, 50 μM) of the same molecule?
A: Its fold induction at 50 µM is 4.4.

Q: What about the fold induction at 100 µM ([15]; HCT116, 100 μM) of the same molecule?
A: The fold induction at 100 µM was 13.2.

Q: What about the “proportion of S phase” value [16] of the same molecule?
A: Its value is “S기의 비율을 감소”.

Q: What about the “proportion of SubG1 phase” value [16] of the same molecule?
A: The value was “유의적으로 증가”.

Q: And the DCF fluorescence ([17]; HT29)?
A: The DCF fluorescence was “형광을 증가”.

Q: What about the fold induction at 50 µM ([17]; Homo sapiens, HT-29, HT29, 50 μM, 1 h, read-out: increase in ROS production) of the same molecule?
A: Its fold induction at 50 µM is 5.6.

Q: And the ATG5 expression [18]?
A: Its ATG5 expression is “발현을 증가”.

Q: And the P70S6K phosphorylation [19]?
A: The P70S6K phosphorylation was “인산화를 억제”.

Q: And the BAK expression ([2]; colorectal cancer cells, 24 h)?
A: The BAK expression was “발현을 증가”.

Q: What about the BCL-xL expression [20] of the same molecule?
A: The BCL-xL expression was “발현을 저해”.

Q: What about the DCF fluorescence ([21]; HCT116) of the same molecule?
A: The DCF fluorescence was “형광을 증가”.

Q: What about the fold induction at 50 µM ([21]; Homo sapiens, HCT-116, HCT116, 50 μM, 1 h, read-out: increase in ROS production) of the same molecule?
A: The fold induction at 50 µM was 15.8.

Q: And the inhibition at 50 µM [22]?
A: Its inhibition at 50 µM is 42%.

Q: And the ERK phosphorylation [23]?
A: The ERK phosphorylation was “인산화를 유도”.

Q: What about the “frequency of DNA fragmentation” value [24] of the same molecule?
A: Its value is “DNA 단편화의 빈도를 증가”.

Q: What about the cytochrome c expression ([3]; colorectal cancer cells, 24 h) of the same molecule?
A: Its cytochrome c expression is “발현을 증가”.

Q: And the AKT phosphorylation [25]?
A: The AKT phosphorylation was “인산화를 억제”.

Q: What about the “decrease” value [26] of the same molecule?
A: The value was 1.5 fold.

Q: What about the JNK phosphorylation [27] of the same molecule?
A: Its JNK phosphorylation is “인산화 역시 증가”.

Q: And the cell migration [28]?
A: The cell migration was “세포 이주성을 현저하게 감소”.

Q: And the P62 expression [29]?
A: Its P62 expression is “발현을 증가”.

Q: What about the “reduction of cell viability” value ([4]; HT29, 100 μM or more) of the same molecule?
A: Its value is no less than 50%.

Q: What about the P38 phosphorylation [30] of the same molecule?
A: The P38 phosphorylation was “인산화 역시 증가”.

Q: What about the cell migration [31] of the same molecule?
A: The cell migration was “세포 이주성을 현저하게 감소”.

Q: And the S6 phosphorylation [32]?
A: The S6 phosphorylation was “인산화를 억제”.

Q: And the LC3BⅡ expression ([33]; HCT116)?
A: Its LC3BⅡ expression is “발현을 증가”.

Q: And the LC3BⅡ expression ([33]; HT29)?
A: The LC3BⅡ expression was “발현을 증가”.

Q: And the GRP78 expression [34]?
A: Its GRP78 expression is “발현을 증가”.

Q: And the fold induction at 50 µM ([35]; HT29, 50 μM)?
A: The fold induction at 50 µM was 1.6.

Q: What about the fold induction at 100 µM ([35]; HT29, 100 μM) of the same molecule?
A: Its fold induction at 100 µM is 1.7.
